# Key:
# [1] = molecular target: T1, M2 muscarinic receptor (Rattus norvegicus, UniProt P10980); test: Radioligand binding assay, [3H]-N-methylscopolamine, rat heart membranes; conditions: [3H]-NMS binding, Ki by Cheng & Prusoff; for Ki: read-out: M2 pki
# T1 construct: Submandibular glands and heart were isolated and placed in ice cold homogenising buffer; from tissue; host or cells: rat heart membrane homogenate
# T1 sequence (P10980 1-466): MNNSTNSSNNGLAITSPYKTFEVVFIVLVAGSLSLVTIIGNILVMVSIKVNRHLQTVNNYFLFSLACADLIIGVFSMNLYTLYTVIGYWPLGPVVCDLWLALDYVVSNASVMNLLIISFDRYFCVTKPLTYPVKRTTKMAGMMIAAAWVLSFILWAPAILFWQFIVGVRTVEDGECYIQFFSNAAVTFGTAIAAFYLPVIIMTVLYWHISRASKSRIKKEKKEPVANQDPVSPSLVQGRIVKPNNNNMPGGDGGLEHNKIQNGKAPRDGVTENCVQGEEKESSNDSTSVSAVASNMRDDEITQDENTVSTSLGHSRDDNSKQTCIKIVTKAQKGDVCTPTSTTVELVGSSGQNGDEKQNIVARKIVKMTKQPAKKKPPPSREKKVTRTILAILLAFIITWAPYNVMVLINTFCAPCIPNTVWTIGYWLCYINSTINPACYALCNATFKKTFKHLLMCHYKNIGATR
# Experimental: (§1) Radioligand Binding Assays: • The affinity of test compounds for M2 and M3 muscarinic receptor subtypes was determined by [^3H]-N-methylscopolamine binding studies using rat heart and submandibular gland respectively as described by Moriya et al., (Life Sci, 1999, 64(25):2351-2358) with minor modifications. Membrane preparation: Submandibular glands and heart were isolated and placed in ice cold homogenising buffer (HEPES 20 mM, 10 mM EDTA, pH 7.4) immediately after sacrifice. The tissues were homogenised in 10 volumes of homogenising buffer and the homogenate was filtered through two layers of wet gauze and filtrate was centrifuged at 500 g for 10 min. The supernatant was subsequently centrifuged at 40,000 g for 20 min. The pellet thus obtained was resuspended in same volume of assay buffer (HEPES 20 mM, EDTA 5 mM, pH 7.4) and were stored at −70° C. until the time of assay. Ligand binding assay: The compounds were dissolved and diluted in DMSO. The membrane homogenates (150-250 μg protein) were incubated in 250 μl of assay buffer (HEPES 20 mM, pH 7.4) at 24-25° C. for 3 h. Non-specific binding was determined in the presence of 1 μM atropine. The incubation was terminated by vacuum filtration over GF/B fiber filters(Wallac). The filters were then washed with ice cold 50 mM Tris HCl buffer (pH 7.4). The filter mats were dried and bound radioactivity retained on filters was counted. The IC50 & Kd were estimated by using the non-linear curve fitting program using G Pad Prism software. The value of inhibition constant Ki was calculated from competitive binding studies by using Cheng & Prusoff equation (Biochem Pharmacol, 1973, 22: 3099-3108), Ki=IC50/(1+L/Kd), where L is the concentration of [^3H]NMS used in the particular experiment. pki is—[log Ki].
# [2] = molecular target: T2, M3 muscarinic receptor (Rattus norvegicus, UniProt P08483); test: Radioligand binding assay, [3H]-N-methylscopolamine, rat submandibular gland membranes; conditions: [3H]-NMS binding, Ki by Cheng & Prusoff; for Ki: read-out: M3 pki
# T2 construct: Submandibular glands and heart were isolated and placed in ice cold homogenising buffer; from tissue; host or cells: rat submandibular gland membrane homogenate
# Experimental: as §1
# T2 sequence (P08483 whole entry): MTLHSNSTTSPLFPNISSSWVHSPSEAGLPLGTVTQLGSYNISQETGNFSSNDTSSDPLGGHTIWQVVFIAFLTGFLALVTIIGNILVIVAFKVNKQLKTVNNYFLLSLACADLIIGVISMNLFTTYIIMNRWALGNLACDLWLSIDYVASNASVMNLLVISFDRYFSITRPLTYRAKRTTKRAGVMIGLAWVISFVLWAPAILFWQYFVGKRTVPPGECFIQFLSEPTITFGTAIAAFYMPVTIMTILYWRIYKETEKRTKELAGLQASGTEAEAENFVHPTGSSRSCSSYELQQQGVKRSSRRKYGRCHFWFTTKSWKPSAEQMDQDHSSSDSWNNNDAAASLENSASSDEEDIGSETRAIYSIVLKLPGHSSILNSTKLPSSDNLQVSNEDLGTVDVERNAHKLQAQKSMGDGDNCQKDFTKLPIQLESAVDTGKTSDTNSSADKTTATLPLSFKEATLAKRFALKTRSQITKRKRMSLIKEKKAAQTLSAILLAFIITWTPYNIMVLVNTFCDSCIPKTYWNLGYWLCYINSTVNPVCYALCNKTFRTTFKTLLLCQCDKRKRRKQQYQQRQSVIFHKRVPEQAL
Ki [1] [µM],Ki [2] [µM],M2 pki [1],M3 pki [2],melting point [°C],Molecule
> 10,> 10,–,–,–,"Cc1c(-c2ccccc2)oc2c(C(=O)N[C@H]3[C@@H]4CN(Cc5ccc(C#N)cc5)C[C@@H]43)cccc2c1=O [Compound No. 2, (1α,5α,6α)-6N-[3-(4-cyanobenzyl)-3-azabicyclo[3.1.0]hexyl]-3-methyl-4-oxo-2-phenyl-4H-1-benzopyran-8-carboxamide]"
–,–,<5.3,5.1,–,"Cc1c(-c2ccccc2)oc2c(C(=O)NCC3C4CN(Cc5ccccc5)CC34)cccc2c1=O (stereo not drawn) [Compound No. 3, (1α,5α,6α)-N-[3-benzyl-3-azabicyclo[3.1.0]hexyl-6-(aminomethyl)-yl]-3-methyl-4-oxo-2-phenyl-4H-1-benzopyran-8-carboxamide]"
> 1,> 1,–,–,–,"Cc1c(-c2ccccc2)oc2c(C(=O)NCC34CC3CN(Cc3ccccc3)C4)cccc2c1=O (centres unmarked) [Compound No. 5, N-[3-benzyl-3-azabicyclo[3.1.0]hexyl-1-(aminomethyl)-yl]-3-methyl-4-oxo-2-phenyl-4H-1-benzopyran-8-carboxamide]"

# Second part, the molecule before the results:
Molecule,Ki [1] [µM],Ki [2] [µM],M2 pki [1],M3 pki [2],melting point [°C]
"(1α,5α,6α)-N-[3-[4-methyl-3-pentenyl]-3-azabicylo[3.1.0]hexyl-6-(aminomethyl)-3-methyl-4-oxo-2-phenyl-4H-1-benzo-pyran-8-carboxamide [Compound No. 4]",–,–,<6,<6,–
"Cc1c(-c2ccccc2)oc2c(C(=O)N[C@H]3[C@@H]4CN(Cc5ccccc5)C[C@@H]43)cccc2c1=O [Compound No. 1, (1α,5α,6α)-6N-[3-benzyl-3-azabicyclo[3.1.0]hexyl]-3methyl-4-oxo-2-phenyl-4H-1-benzopyran-8-carboxamide]",> 10,> 10,–,–,182 to 184
